“And” between values parts separate entries of the source, which are not always exact repeats. Identical values can stand only once. Each block holds one compound with its values, some of them ahead of it.
How the values were obtained:
[1] = molecular target: T1, cytoplasmic domain of the insulin receptor β subunit (Homo sapiens, UniProt P06213); conditions: read-out: IC50 insulin receptor (positive control); cited from earlier work
T1 construct: Baculovirus-expressed cytoplasmic domain of the insulin receptor β subunit; purchased Biomol Research laboratories Inc., USA; host or cells: Baculovirus expression

EGFR [2] = molecular target: T2, EGFR (Homo sapiens, UniProt P00533); assay: EGFR TK ELISA with PGT substrate (competitive binding at the ATP site); format: biochemical; parameters: purchased BIOMOL (Plymouth Meeting); also a gift from Pfizer Inc
Method: The ability of the combi-molecules to block EGFR TK activity was determined by an ELISA assay using poly(L-glutamic acid-L-tyrosine, 4:1) PGT as a substrate and commercially available EGFR.
Nunc MaxiSorp 96-well plates were incubated overnight at 37° C. with 100μL per well of 0.25 mg/mL PGT in PBS. Excess PGT was removed and the plates were washed 3 times with Tween 20 (0.1%) in PBS. […] The compound was added and phosphorylation initiated by the addition of ATP (20 μM). After 8 min at room temperature with constant shaking, the reaction was terminated by the aspiration of the reaction mixture and by rinsing the plate 4 times with wash buffer (Tween 20 (0.1%) in PBS). […] Antibody was removed by aspiration, and the plates washed 4 times with wash buffer. The signals were developed by the addition of 50 μL per well of TMB peroxidase substrate (Kierkegaard and Perry Laboratories, Gaithersberg, Md.).
This assay is similar to the one previously described. Nunc MaxiSorp 96-well plates were incubated overnight at 37° C. with 100 μl/well of 25 ng/ml PGT in PBS. Excess PGT was removed and the plates were washed three times with wash buffer (Tween 20 (0.1%) in PBS). […] The compound was added and phosphorylation initiated by the addition of ATP (20 μM). After 8 min at room temperature with constant shaking, the reaction was terminated by aspirating the mixture and by rinsing the plates four times with wash buffer Tween 20 (0.1%) in PBS. […] Antibody was removed by aspiration, and the plate washed four times with wash buffer. The signals were developed by the addition of 50 μl/well of 3,3′,5,5′-tetramethylbenzidine (TMB) peroxidase substrate (Kierkegaard and Perry Laboratories, Gaithersberg, Md., USA).

A431 cells [3] = assay: SRB growth inhibition assay in A431 cells; format: cell-based, human
Method: All growth inhibitory activities were evaluated using the SRB assay (33). Briefly, following drug treatment, cells were fixed using 50 μL of cold trichloroacetic acid (50%) for 60 min at 4° C., washed five times with tap water, and stained for 30 min at room temperature with SRB (0.4%) dissolved in acetic acid (0.5%). The plates were rinsed five times with 1% acetic acid and allowed to air dry. The resulting colored residue was dissolved in 200 μL of Tris base (10 mM), and the optical density read for each well at 540 nm using a Bio-Rad microplate reader (model 2550). […]
Cell monolayers were continuously exposed to different concentrations of each drug for 72 h. Under short exposure, they were treated with each drug for 2 h and allowed to recover for 72 h in drug-free medium.
To study the reversibility of the antiproliferative effects of our compounds, cells were grown to 70% confluence in 96-well plates and subsequently washed twice with PBS, after which they were exposed to serum-free medium for 18 h. Under continuous exposure, the cells were exposed to different concentrations of each drug for 120 h. Under short exposure, they were exposed to each drug for 2 h, after which they were allowed to recover for 120 h in drug free medium. Growth inhibitory activities were evaluated using the SRB assay as described above.

[4] = Degradation in serum-containing cell culture medium (UV, HPLC); format: in vitro ADME; conditions: bovine, serum-containing cell culture medium (RPMI with 10% serum); RPMI with 10% serum, 37° C.; read-out: half-life (t1/2) by UV spectrophotometry at 340 nm
Method: Thereafter, proteins were precipitated by the addition of acetonitrile (3.5 ml) and the supernatant collected by centrifugation. […] The operating mode was isocratic and two solutions, “A” (50% acetonitrile) and “B” (50% water), were used with a 0.5 ml/min flow rate and a 5 μL injection volume. […] For the rapid quantitation of metabolite, a less polar acetonitrile-water (70:30) eluent was used.
The half-life was estimated by a one-phase exponential decay curve-fit method using the GraphPad software package (GraphPad Software, Inc., San Diego, Calif.).
The half-life of BJ2000 under physiological conditions was studied by UV-spectrophotometry. BJ2000 was dissolved in a minimum volume of DMSO, diluted with RPMI-1640 supplemented with 10% FBS, and absorbencies read at 340 nm in a UV cell maintained at 37° C. with a circulating water bath. The half-life was estimated by a one-phase exponential decay curve-fit method, using the GraphPad software package (GraphPad software, Inc., San Diego, Calif., USA).
Proteins were thereafter precipitated by the addition of acetonitrile (3.5 ml), and the supernatant collected by centrifugation. […] HPLC analyses were performed on a Hewlett Packard 1090 liquid chromatograph, using a Waters C4 15-μm 300×3.9-mm reverse phase column to characterize and quantitate the products resulting from the degradation of BJ2000. […] The peaks were detected at 250 nm.

A431 cells [5] = assay: Colony forming (clonogenic) assay in A431 cells; conditions: Homo sapiens, A-431, 144 h, read-out: IC50 colony formation
A431 cells [6] = assay: Alkaline comet assay for DNA damage in A431 cells; conditions: for DNA damage (comet tail moment): A431, 30 min or 2 h exposure
Method: A431 cells were exposed to drugs for 30 min or 2 h, and harvested with trypsin-EDTA. The cells were subsequently collected by centrifugation and re-suspended in PBS. The resulting cell suspension was diluted to approximately 10^6 cells, and mixed with agarose (1%) in PBS at 37° C. in a 1:10 dilution. The gels were cast on Gelbond strips (Mandel Scientific, Guelph, Canada) using gel casting chambers, as previously described (32), then immediately placed into a lysis buffer [2.5 M NaCl, 0.1 M tetra-sodium EDTA, 10 mM tris-base, 1% (w/v) N-lauryl sarcosine, 10% (v/v) DMSO and 1% (v/v) Triton X-100]. After being kept on ice for 30 min, the gels were gently rinsed with distilled water and then immersed in a second lysis buffer [2.5 M NaCl, 0.1 M tetra-sodium EDTA, 10 mM tris-base], containing 1 mg/ml proteinase K for 60 min at 37° C. Thereafter, the gels were rinsed with distilled water, incubated in alkaline electrophoresis buffer for 30 min at 37° C., and electrophoresed at 300 mA for 60 min. The gels were subsequently rinsed with distilled water and placed into 1 M ammonium acetate for 30 min. They were further soaked in 100% ethanol for 2 h, dried overnight and subsequently stained with SYBR Gold ( 1/10000 dilution of stock supplied from Molecular Probes, OR) for 20 min. For evaluation of comets, DNA damage was assessed using the Tail Moment parameter (i.e. the product of the distance between the barycentres of the head and the tail of the comet. A minimum of 50 cell comets were analyzed for each sample using ALKOMET v3.1 software, and values are an average of tail moments for the entire cell population.
Cell suspensions were diluted to approximately 10^6 cells, and mixed with agarose (1%) in PBS at 37° C. in a 1:10 dilution. The gels were cast on Gelbond strips (Mandel Scientific, Guelph, Canada) using gel casting chambers, as previously described (31), and then immediately placed in a lysis buffer [2.5 M NaCl, 0.1 M tetra-sodium EDTA, 10 mM Tris-base, 1% (w/v) N-lauryl sarcosine, 10% (v/v) DMSO, and 1% (v/v) Triton X-100, pH 10.0]. After being kept on ice for 30 min, the gels were gently rinsed with distilled water and immersed in a second lysis buffer (2.5 M NaCl, 0.1 M tetrasodium EDTA, 10 mM Tris-base) containing 1 mg/ml proteinase K for 60 min at 37° C. Thereafter, the gels were rinsed with distilled water, incubated in alkaline electrophoresis buffer for 30 min at 37° C., and electrophoresed at 300 mA for 60 min. The gels were subsequently rinsed with distilled water and placed in 1 M ammonium acetate for 30 min. They were soaked in 100% ethanol for 2 h, dried overnight, and subsequently stained with SYBR Gold ( 1/10000 dilution of stock supplied from Molecular Probes, Eugene, Oreg.) for 20 min. Comets were visualized at 330× magnification and DNA damage was quantitated using the Tail Moment parameter (i.e., the distance between the barycenter of the head and the tail of the comet multiplied by the percentage of DNA within the tail of the comet). A minimum of 50 cell comets were analyzed for each sample, using ALKOMET version 3.1 image analysis software, and values are averages of tail moments for the entire cell population per sample.

human c-src = molecular target: T3, human c-src (Homo sapiens, UniProt P12931); assay: c-src kinase ELISA; format: biochemical; conditions: 1-100 μM range
T3 construct: purchased Upstate NY; host or cells: Baculovirus expression
Method: (§1) Conditions for the c-src and insulin kinase assays were similar to those of the EGFR kinase assay, with the exception of the addition of 1 mM manganese chloride to the assay buffer, and a final ATP concentration of 100 μM. The reaction was terminated by the addition of 50 μl of a 250 mM solution of EDTA prior to aspiration.

[7] = molecular target: T1, cytoplasmic domain of the insulin receptor β subunit; assay: insulin receptor kinase ELISA; format: biochemical; conditions: 1-100 μM range
Method: as §1

EGFR [8] = molecular target: T2, EGFR; assay: Reverse EGFR autophosphorylation (reversibility) assay in A431 cells; format: cell-based; conditions: A431, 30 μM, 90 min
Method: To test this hypothesis, the reversibility assay (40, 41) was used, according to which the cells are treated with the drug for 90 min after which the culture medium is repeatedly removed and replaced 3 times, followed by the measurement of EGFR autophosphorylation.
A431 cells were grown to confluence in 6-well plates and then incubated in serum-free medium for 18 h (41). Duplicate sets of cells were then treated with 30 μM of each compound for 90 min. One set of cells was then stimulated with EGF (100 ng/ml) for 10 min and extracts were made as described under the Western blotting procedure above. The other set of cells was washed free of each compound with warmed serum-free media and incubated for 2 h. Thereafter, the cells were washed, incubated for another 2 h, washed again, and then incubated for a further 4 h. This set of cells was then stimulated with EGF and extracts were prepared as for the first set.

NIH3T3HER14 cells = assay: Growth factor-stimulated proliferation in NIH3T3HER14 cells (SRB); format: cell-based, mouse; conditions: NIH3T3HER14, 72 h
Method: To study the effect of our compounds on growth factors stimulated proliferation, cells were grown to 70% confluence in 48-well plates and washed twice with PBS, after which they were exposed to serum-free medium for 18 h. The cells were then exposed to each drug and growth factors (EGF, TGFα, PDGF or serum) for 72 h and cell growth measured using the sulforhodamine B (SRB) assay (33). Briefly, following drug treatment, cells were fixed using 50 μl of cold trichloroacetic acid (50%) for 60 min at 4° C., washed five times with tap water, and stained for 30 min at room temperature with SRB (0.4%) dissolved in acetic acid (0.5%). The plates were rinsed five times with 1% acetic acid and allowed to air dry. […] Each point represents the average of at least two independent experiments run in triplicate.

EGFR [9] = molecular target: T2, EGFR; assay: cell-based
Method: The inhibition of receptor autophosphorylation in viable cells was determined by anti-phosphotyrosine Western Blots. A431 cells were pre-incubated overnight for 24 h at 37° C. in a 6-well plate (1×10^6) with 0.1% serum, after which they were exposed to a range of doses for each drug for 2 h and subsequently treated with 50 ng/mL EGF for 30 min at 37° C. The cells were thereafter washed with PBS and re-suspended in cold lysis buffer [50 mM Tris-HCl pH 7.5; 150 mM NaCl; 1% NP40, 1 mM EDTA; 5 mM NaF; 1 mM Na3VO4; protease inhibitor tablet (Roche Biochemicals, Laval, Canada)]. The lysates were kept on ice for 30 min and collected by centrifugation at 10 000 rpm for 20 min at 4° C. The protein concentrations were determined against a standardized control using the Bio-Rad protein assay kit (Bio-Rad Laboratories, Hercules, Calif.). […] Non-specific binding on the PVDF membrane was minimized with a blocking buffer containing nonfat dry milk (3%) in PBS. The membrane was blotted with primary antibodies [either antiphosphotyrosine antibody (UBI, Lake Placid, N.Y.) for the detection of phosphotyrosine, or anti-EGFR (Neomarkers, Fremont, Calif.) for the determination of corresponding receptor levels], and anti-β-tubulin (Neomarkers, Fremont, Calif.) for the detection of equal loading. Thereafter, blots were incubated with HRP-goat anti-mouse antibody (1:200 dilution; Bio-Rad Laboratories, Hercules, Calif.) and the bands visualized with an enhanced chemiluminescence system (Amersham Pharmacia Biotech, Buckinghamshire, UK). Band intensities were measured using the SynGene GeneTools software package (Cambridge, UK).
The inhibition of receptor autophosphorylation in viable cells was determined by anti-phosphotyrosine Western Blots. […] Protein concentrations were determined against a standardized control using the Bio-Rad protein assay kit (Bio-Rad Laboratories, Hercules, Calif.). […] Band intensities were measured using the SynGene GeneTools software package (Cambridge, UK).

[10] = system: NIH3T3 and NIH3T3HER14 cells; assay: MTT cytotoxicity assay in NIH3T3 / NIH3T3HER14; format: cell-based, mouse
Method: The cytotoxic effects of our compounds were evaluated using the 3-(4,5-dimethylthiazo-2-yl)-2,5-diphenyltetrazolium bromide (MTT) assay (42) with minor modifications. Briefly, cells were grown in 24-well plates and then exposed to the compounds for 96 h. MTT (50μl) of (5 mg/ml in sterile PBS) was added to 500 μl of media and the plates were incubated for 2-3 h at 37° C. […] Each point represents the average of at least two independent experiments run in duplicate.

A431 cells [11] = assay: SRB growth inhibition assay in A431 cells; format: cell-based; conditions: Homo sapiens, A-431, 96 h, read-out: IC50 growth inhibition
[12] = Homo sapiens, A-431, 72 h, 72 h continuous exposure, SRB, A431, read-out: IC50 growth inhibition
[13] = Homo sapiens, A-431, read-out: IC50 growth inhibition
[14] = ELISA, PGT substrate, purified EGFR, ATP 20 μM, 8 min, read-out: IC50, inhibition of EGFR TK (competitive binding at ATP site)

T2 sequence (P00533 25-1210): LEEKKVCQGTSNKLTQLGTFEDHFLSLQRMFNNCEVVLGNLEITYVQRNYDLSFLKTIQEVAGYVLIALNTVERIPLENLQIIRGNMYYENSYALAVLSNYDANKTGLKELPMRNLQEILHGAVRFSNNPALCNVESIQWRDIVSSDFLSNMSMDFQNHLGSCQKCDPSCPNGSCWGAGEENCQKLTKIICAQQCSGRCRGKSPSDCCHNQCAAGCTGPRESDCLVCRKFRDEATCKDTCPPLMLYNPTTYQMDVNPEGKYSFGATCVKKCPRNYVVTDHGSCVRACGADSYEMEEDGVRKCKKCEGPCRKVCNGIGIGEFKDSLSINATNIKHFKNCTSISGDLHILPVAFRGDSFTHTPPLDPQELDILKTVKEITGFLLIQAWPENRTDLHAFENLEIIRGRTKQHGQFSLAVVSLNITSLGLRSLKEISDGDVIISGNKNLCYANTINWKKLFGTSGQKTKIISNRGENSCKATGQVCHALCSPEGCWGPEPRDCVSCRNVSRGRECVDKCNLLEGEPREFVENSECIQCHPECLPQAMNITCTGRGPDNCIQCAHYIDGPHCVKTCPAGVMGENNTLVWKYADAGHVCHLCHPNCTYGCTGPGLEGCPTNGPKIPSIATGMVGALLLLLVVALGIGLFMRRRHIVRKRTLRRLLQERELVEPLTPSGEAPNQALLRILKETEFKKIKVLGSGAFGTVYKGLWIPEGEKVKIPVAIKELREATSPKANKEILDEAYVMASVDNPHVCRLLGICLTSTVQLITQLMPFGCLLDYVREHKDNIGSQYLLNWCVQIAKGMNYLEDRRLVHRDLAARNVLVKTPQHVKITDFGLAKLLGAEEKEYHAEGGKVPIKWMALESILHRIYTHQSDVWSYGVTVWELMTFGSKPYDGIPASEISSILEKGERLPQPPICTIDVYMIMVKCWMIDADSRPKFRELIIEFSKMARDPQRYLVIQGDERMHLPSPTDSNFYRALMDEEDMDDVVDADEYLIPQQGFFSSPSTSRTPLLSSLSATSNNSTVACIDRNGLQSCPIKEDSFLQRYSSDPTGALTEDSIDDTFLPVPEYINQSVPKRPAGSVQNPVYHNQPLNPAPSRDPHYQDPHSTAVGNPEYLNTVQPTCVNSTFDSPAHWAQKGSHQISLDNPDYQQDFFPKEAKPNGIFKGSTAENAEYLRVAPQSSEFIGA
T1 sequence (P06213 980-1382 limits assumed): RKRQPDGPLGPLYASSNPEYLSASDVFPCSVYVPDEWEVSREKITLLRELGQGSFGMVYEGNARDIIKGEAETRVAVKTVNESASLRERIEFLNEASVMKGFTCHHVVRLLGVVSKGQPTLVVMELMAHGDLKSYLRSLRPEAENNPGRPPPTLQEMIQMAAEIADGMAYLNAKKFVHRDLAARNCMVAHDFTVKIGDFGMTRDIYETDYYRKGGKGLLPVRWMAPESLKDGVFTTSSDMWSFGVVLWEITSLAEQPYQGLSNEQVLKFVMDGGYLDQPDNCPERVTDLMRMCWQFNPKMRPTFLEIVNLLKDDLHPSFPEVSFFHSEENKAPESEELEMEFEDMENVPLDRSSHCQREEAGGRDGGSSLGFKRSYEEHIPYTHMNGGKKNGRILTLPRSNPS
T3 sequence (P12931 whole entry): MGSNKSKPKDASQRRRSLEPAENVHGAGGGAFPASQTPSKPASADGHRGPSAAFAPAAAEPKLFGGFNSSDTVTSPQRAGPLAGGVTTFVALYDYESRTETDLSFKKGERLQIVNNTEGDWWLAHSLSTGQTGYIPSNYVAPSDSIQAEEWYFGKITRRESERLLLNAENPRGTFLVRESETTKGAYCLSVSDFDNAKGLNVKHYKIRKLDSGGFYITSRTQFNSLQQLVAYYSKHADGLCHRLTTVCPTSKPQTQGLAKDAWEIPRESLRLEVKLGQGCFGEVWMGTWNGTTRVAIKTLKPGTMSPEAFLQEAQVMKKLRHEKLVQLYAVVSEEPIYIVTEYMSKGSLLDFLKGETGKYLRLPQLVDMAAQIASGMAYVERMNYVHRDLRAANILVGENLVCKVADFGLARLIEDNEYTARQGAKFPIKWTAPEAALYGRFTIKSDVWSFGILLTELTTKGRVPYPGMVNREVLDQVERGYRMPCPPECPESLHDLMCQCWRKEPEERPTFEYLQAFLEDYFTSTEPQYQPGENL

IC50 (EGFR [2]): ~0.05 µM
SMILES: CNc1ccc2ncnc(Nc3cccc(C)c3)c2c1 [FD110]

IC50 (A431 cells [3]; 72 h continuous exposure, SRB, A431, read-out: IC50 growth inhibition): ~30 µM | IC50 (A431 cells [3]; Homo sapiens, A-431, 2 h exposure then 72 h recovery in drug-free medium, SRB, A431, read-out: IC50 growth inhibition): 36 µM | IC50 (A431 cells [3]; [12]): 36 µM | half-life [4]: ~30 min | IC50 (A431 cells [5]): 4 µM
SMILES: CNN=Nc1ccc2ncnc(Nc3cccc(C)c3)c2c1 [SMA41]
concentration range with significant comet tail moment / DNA damage (A431 cells [6]; A431, 30 min and 2 h exposure): 6 to 25 µM and 6.25 to 25 µM | DNA damage (comet tail moment) (A431 cells [6]): capable of inducing DNA damage in a dose-dependent manner | concentration range with nuclear condensation (A431 cells [6]; A431, 2 h): 25 to 100 µM

effect on c-src TK activity (human c-src): did not block c-src TK activity | IC50 (A431 cells [3]; [13]): > 100 µM | EGF-dependent EGFR autophosphorylation immediately after drug exposure (EGFR [8]): completely suppressed
SMILES: Nc1ccc2ncnc(Nc3cccc(Cl)c3)c2c1 [FD105]
effect on insulin receptor TK [7]: nor did it exert any effect on insulin receptor TK | concentration giving 100% growth inhibition (NIH3T3HER14 cells; EGF or TGFα-induced proliferation): 1 µM | concentration giving 100% inhibition (NIH3T3HER14 cells; PDGF-stimulated growth): approximately 30 μM | DNA damage (comet tail moment) (A431 cells [6]): non-DNA damaging agent

The remaining lines, values behind:

SMILES: Cc1cccc(Nc2ncnc3ccc(N(C)C(=O)NCCCl)cc23)c1
melting point: 150 to 151 °C (dec.)

SMILES: CC(=O)OCOC(c1ccc2ccccc2c1)P(=O)(OCOC(C)=O)OCOC(C)=O (centres unmarked) [HNPMA-(AM)3]
IC50 [1]: 100 µM

SMILES: COCCNN=Nc1ccc2ncnc(Nc3cccc(Br)c3)c2c1 [D R1=MeOCH2CH2—]
IC50 (EGFR [2]; Table 1, means and SE's of two separate experiments, read-out: IC50 (μM), inhibition of EGFR tyrosine kinase activity): 0.071 ± 0.029 µM

SMILES: Cc1cccc(Nc2ncnc3ccc(N)cc23)c1 [SMA52, 6-amino-4-[(m-tolyl)amino]quinazoline]
IC50 (A431 cells [3]; Homo sapiens, A-431, 72 h, read-out: IC50 growth inhibition): 59 µM | IC50 (A431 cells [3]; [13]): > 100 µM | IC50 (EGFR [9]): 8.44 µM | IC50 (A431 cells [5]): 3.7 µM | DNA damage (comet tail moment) (A431 cells [6]): does not possess DNA damaging properties | IC50 (EGFR [2]): 1.02 µM | IC50 (EGFR [2]; [14]): 1 µM

SMILES: Cn1nnc2c(C(N)=O)ncn2c1=O [TEM, temozolomide, reference compound]
antiproliferative activity under short and continuous exposure (A431 cells [3]; 2 h + 72 h recovery and 72 h continuous, A431): inactive | IC50 (A431 cells [3]; [12]): 366 µM | fold greater cytotoxic activity in EGFR transfectant NIH3T3HER14 than in parental NIH3T3 [10]: no differential cytotoxicity | IC50 (EGFR [9]): > 100 µM | IC50 (EGFR [2]; [14]): > 100 µM

SMILES: COCCNN=Nc1ccc2ncnc(Nc3cccc(C)c3)c2c1 [E R1=MeOCH2CH2—]
IC50 (EGFR [2]): 0.196 ± 0.031 µM

SMILES: O=NN(CCCl)C(=O)NCCCl [BCNU, bis-chloroethyl-N-nitrosourea, reference compound]
IC50 (A431 cells [11]): 40 µM

SMILES: Cc1cccc(Nc2ncnc3ccc(N(C)C(=O)N(CCCl)N=O)cc23)c1 [FD137, N-(2-Chloroethyl)-N′-methyl-N′-(4-m-tolylaminoquinazolin-6-yl)-N-nitrosourea]
fold more potent than BCNU (A431 cells [3]): 50 fold | melting point: 150 to 151 °C (dec.) | IC50 (A431 cells [11]): 0.8 µM | level of DNA lesions compared with BCNU (A431 cells [6]; A431): lower levels of DNA lesions than BCNU | DNA damage (comet tail moment) (A431 cells [6]): dose-dependent increase in DNA single strand breaks

From patent US7572798B2, “Combi-molecules having signal transduction inhibitory properties and DNA damaging properties” (McGill University, priority 2001, dated 2009)
